Source: patent US8673914B2, “Use of phosphodiesterase inhibitors for treating multidrug resistance” (St. John's University, priority 2011, dated 2014)

Tests used:
[1] = system: HEK/MRP7 cells; assay: [^3H]-paclitaxel accumulation (Example 4); type: cell-based; settings: 5 μM, 2 h
Experimental: (§1) The effect of PDE5 inhibitors on the intracellular accumulation of paclitaxel in HEK293-pcDNA3.1 and HEK/MRP7 cells was measured using [^3H]-paclitaxel. […] For efflux studies, the cells were treated the same as in the drug accumulation study, and then washed three times with ice-cold PBS, and suspended in fresh medium with or without PDE5 inhibitors. Aliquots were evenly collected at various time points (0, 30, 60, and 120 min). Samples from both accumulation and efflux experiments were washed with ice-cold PBS three times and placed in scintillation fluid, and the radioactivity was measured in a Packard TRI-CARB® 1900CA liquid scintillation analyzer from Packard Instrument Company, Inc. (Downers Grove, Ill.).

[2] = system: KB-C2 cells (ABCB1); assay: [^3H]-paclitaxel accumulation (Example 1); type: cell-based, human; settings: 10 μM
Experimental: The intracellular accumulation of [^3H]-paclitaxel was measured as follows. […] Intracellular paclitaxel accumulation was measured by incubating cells with 0.1 μM [^3H]-paclitaxel for 2 h in the presence or absence of the reversal agents at 37° C. The cells were washed three times with ice-cold PBS, then suspended in fresh medium with or without reversal agents at 37° C. Aliquots of the extracellular medium (40 μl) were collected at various time points (0, 60, 120 min), and finally the cells were collected and lysed in 10 mM lysis buffer (pH 7.4, containing 1% Triton X-100 and 0.2% SDS). Each sample was placed in scintillation fluid and the radioactivity was measured in a Packard TRI-CARB1 1900CA liquid scintillation analyzer from Packard Instrument Company, Inc. (Downers Grove, Ill.).

[3] = system: KB-3-1; assay: MTT cytotoxicity/reversal assay (Example 1); type: cell-based, human
Experimental: (§2) The KB-C2 and KB-3-1 were kindly provided by Dr. Akiyama (Kagoshima University, Japan). HEK293-pcDNA3.1 and wild-type HEK/ABCG2 transfected cells were established by selection with G418 after transfecting HEK293 with either (1) empty pcDNA3.1 vector or (2) pcDNA3.1 vector containing full length of ABCG2 coding arginine (R) at amino acid position 482, and were then cultured in a medium with 2 mg/ml of G418 (ABCG2-482-R2 cells). Similarly, the HEK/MRP1 (ABCC1) and HEK/ABCB1 cells were generated by transfecting the HEK293 cells with either the MRP1 expression vector or the ABCB1 expression vector. All of the cell lines were grown in Dulbecco's modified Eagle's medium (DMEM) supplemented with 10% bovine serum, 100 units/ml penicillin, and […] streptomycin in a humidified incubator containing 5% CO2 at 37° C.
(§3) The MTT assay was used to assess cytotoxicity. The cultured cells were harvested with trypsin and resuspended in a final concentration of 4×10^3 cells/well for KB-3-1; 7.5×10^3 cells/well for KB-C2; and 8×10^3 for all of the other cell lines used in this study. Cells were seeded evenly in 96-well multiplates. […] After 68 h of incubation, 20 μl of the MTT solution (4 mg/ml) was added to each well, and the plate was further incubated for 4 h at 37° C., allowing viable cells to convert the yellow-colored MTT into dark-blue formazan crystals. Subsequently, the medium was discarded, and 100 μl of DMSO was added into each well to dissolve the formazan crystals, generating purple color. The absorbance was determined at 570 nm by an OPSYS Microplate Reader from DYNEX Technologies, Inc. (Chantilly, Va.). […] The degree of the reversal of multidrug resistance (MDR) was calculated by dividing the IC50 of an anticancer drug, e.g., an antineoplastic or chemotherapeutic drug (agent, compound), in a cell type in the absence of a reversal agent by the IC50 of the anticancer drug in the same cell type in the presence of the reversal agent. The IC50 values were calculated from survival curves using the Bliss method.

[4] = system: KB-C2 (ABCB1); assay: MTT cytotoxicity/reversal assay (Example 1); type: cell-based, human
Experimental: as §2, §3

[5] = system: HEK/MRP7; assay: MTT cytotoxicity assay (Example 4); type: cell-based
Outline: (§4)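 MTT viability assay in HEK293 cells carrying empty pcDNA3.1 or MRP7-transfected (G418-selected), seeded at 6000 cells/well in triplicate. Drug exposure 68 h. IC50 from survival curves by Bliss method.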

[6] = system: HEK 293-pcDNA-3.1; assay: MTT cytotoxicity assay (Example 4); type: cell-based; settings: HEK 293-pcDNA-3.1
Outline: as §4

[7] = system: HEK293/pcDNA3.1; assay: MTT cytotoxicity/reversal assay (Example 1); type: cell-based
Outline: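 KB-3-1, ABCB1-overexpressing KB-C2, and HEK293 transfected with empty pcDNA3.1 or ABCG2 (R482) vector. MTT read at 570 nm after 68 h drug exposure plus 4 h MTT at 37 °C. IC50 from survival curves by Bliss method; fold-reversal = IC50 without reversal agent divided by IC50 with it.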

[8] = system: HEK/ABCB1 (ABCB1); assay: MTT cytotoxicity/reversal assay (Example 1); settings: HEK/ABCB1
Experimental: The KB-C2 and KB-3-1 were kindly provided by Dr. Akiyama (Kagoshima University, Japan). […] Similarly, the HEK/MRP1 (ABCC1) and HEK/ABCB1 cells were generated by transfecting the HEK293 cells with either the MRP1 expression vector or the ABCB1 expression vector. All of the cell lines were grown in Dulbecco's modified Eagle's medium (DMEM) supplemented with 10% bovine serum, 100 units/ml penicillin, and […] streptomycin in a humidified incubator containing 5% CO2 at 37° C.
as §3

[9] = system: HEK/MRP7 cells; assay: [^3H]-paclitaxel efflux (Example 4); type: cell-based; settings: 5 μM PDE5 inhibitor
Experimental: as §1

[10] = HEK293/pcDNA3.1, +5 μM reversal agent
[11] = HEK293/pcDNA3.1, +10 μM reversal agent

Q: Which results are given for `CCCc1nc(C)c2c(=O)[nH]c(-c3cc(S(=O)(=O)N4CCN(CC)CC4)ccc3OCC)nn12` [Vardenafil, vardenafil]?
A: increase of intracellular accumulation of [^3H]-paclitaxel [1]: 3.7 fold; increase of intracellular accumulation of paclitaxel [2]: 1.6 fold; fold reversal, cisplatin ([3]; +5 μM reversal agent): (0.89); fold reversal, colchicine ([3]; +5 μM reversal agent): (0.90); fold reversal, paclitaxel ([3]; +5 μM reversal agent): (0.89); fold reversal, cisplatin ([3]; +10 μM reversal agent): (0.93); fold reversal, colchicine ([3]; +10 μM reversal agent): (0.93); fold reversal, paclitaxel ([3]; +10 μM reversal agent): (0.92); fold reversal, cisplatin ([4]; +5 μM reversal agent): (0.87); fold reversal, colchicine ([4]; +5 μM reversal agent): (27.6); fold reversal, paclitaxel ([4]; +5 μM reversal agent): (26.2); fold reversal, cisplatin ([4]; +10 μM reversal agent): (0.96); fold reversal, colchicine ([4]; +10 μM reversal agent): (184.8); fold reversal, paclitaxel ([4]; +10 μM reversal agent): (54.1); fold-resistance, docetaxel ([5]; +1.25 μM reversal agent): (5.56); fold-resistance, paclitaxel ([5]; +1.25 μM reversal agent): (2.99); fold-resistance, vinblastine ([5]; +1.25 μM reversal agent): (3.01); fold-resistance, cisplatin ([5]; +5 μM reversal agent): (1.09); fold-resistance, docetaxel ([5]; +5 μM reversal agent): (1.19); fold-resistance, paclitaxel ([5]; +5 μM reversal agent): (1.06); fold-resistance, vinblastine ([5]; +5 μM reversal agent): (1.11); fold-resistance, docetaxel ([6]; +1.25 μM reversal agent): (1.0); fold-resistance, paclitaxel ([6]; +1.25 μM reversal agent): (0.93); fold-resistance, vinblastine ([6]; +1.25 μM reversal agent): (0.96); fold-resistance, cisplatin ([6]; +5 μM reversal agent): (1.07); fold-resistance, docetaxel ([6]; +5 μM reversal agent): (0.80); fold-resistance, paclitaxel ([6]; +5 μM reversal agent): (0.79); fold-resistance, vinblastine ([6]; +5 μM reversal agent): (0.85); fold reversal, vincristine ([7]; HEK293/pcDNA3.1 (Table 6), +10 μM reversal agent): (0.92); fold reversal, cisplatin [7, 10]: (1.06); fold reversal, paclitaxel [7, 10]: (1.09); fold reversal, vincristine [7, 10]: (0.88); fold reversal, SN-38 [7, 11]: (1.10); fold reversal, cisplatin [7, 11]: (1.00); fold reversal, paclitaxel [7, 11]: (1.18); fold reversal, vincristine [7, 11]: (1.19); fold reversal, cisplatin ([8]; +5 μM reversal agent): (0.95); fold reversal, paclitaxel ([8]; +5 μM reversal agent): (3.86); fold reversal, vincristine ([8]; +5 μM reversal agent): (4.10); fold reversal, cisplatin ([8]; +10 μM reversal agent): (1.09); fold reversal, paclitaxel ([8]; +10 μM reversal agent): (8.69); fold reversal, vincristine ([8]; +10 μM reversal agent): (11.60); percentage of intracellular [^3H]-paclitaxel ([9]; 30 min): 95.34%; percentage of intracellular [^3H]-paclitaxel ([9]; 60 min): 93.58%; percentage of intracellular [^3H]-paclitaxel ([9]; 120 min): 63.92%
